Measured values: patent publication US20020022619A1, “Tricyclic fused pyridine and pyrimidine derivatives as CRF antagonists” (priority 2000, published 2002)

Columns and labels:
[1] = tested on: “anxiogenic” effects of CRF; conditions: cited from earlier work; for effect on the “anxiogenic” effects / actions of CRF in the conflict test: rats, given with CRF

melting point [°C]	SMILES	effect on the “anxiogenic” effects / actions of CRF in the conflict test [1]	behavioral activity alone in the operant conflict test ([1]; compound alone, without CRF)
144.5 to 146	CCN1CCCn2c(=O)n(-c3ccc(C(C)C)cc3Br)c3nc(C)nc1c32 [Example 1, 2-(2-Bromo-4-isopropyl-phenyl)-6-ethyl-4-methyl-6,7,8,9-tetrahydro-2H-2,3,5,6,9a-pentaaza-benzo[cd]azulen-1-one]		
	CNC(=O)c1cc2c(cn1)[nH]c1ccccc12 [FG7142]	enhanced the actions of CRF	
	CCOC(=O)c1ncn2c1CN(C)C(=O)c1cc(F)ccc1-2 [Ro15-1788]	reversed the effects of CRF in a dose-dependent manner	without behavioral activity alone
